Source: US10010541B2, “Modulation of tissue transglutaminase activation in disease” (The Board of Trustees of the Leland Stanford Junior …, priority 2014, dated 2018)

Legend:
TG1 = molecular target: T1, TG1 (Homo sapiens, UniProt P22735); experiment: glutamate dehydrogenase-coupled deamidation assay, substrate Cbz-Gln-Ser; format: biochemical; details: irreversible inhibition model, full progress curves
T1 sequence (P22735 1-817): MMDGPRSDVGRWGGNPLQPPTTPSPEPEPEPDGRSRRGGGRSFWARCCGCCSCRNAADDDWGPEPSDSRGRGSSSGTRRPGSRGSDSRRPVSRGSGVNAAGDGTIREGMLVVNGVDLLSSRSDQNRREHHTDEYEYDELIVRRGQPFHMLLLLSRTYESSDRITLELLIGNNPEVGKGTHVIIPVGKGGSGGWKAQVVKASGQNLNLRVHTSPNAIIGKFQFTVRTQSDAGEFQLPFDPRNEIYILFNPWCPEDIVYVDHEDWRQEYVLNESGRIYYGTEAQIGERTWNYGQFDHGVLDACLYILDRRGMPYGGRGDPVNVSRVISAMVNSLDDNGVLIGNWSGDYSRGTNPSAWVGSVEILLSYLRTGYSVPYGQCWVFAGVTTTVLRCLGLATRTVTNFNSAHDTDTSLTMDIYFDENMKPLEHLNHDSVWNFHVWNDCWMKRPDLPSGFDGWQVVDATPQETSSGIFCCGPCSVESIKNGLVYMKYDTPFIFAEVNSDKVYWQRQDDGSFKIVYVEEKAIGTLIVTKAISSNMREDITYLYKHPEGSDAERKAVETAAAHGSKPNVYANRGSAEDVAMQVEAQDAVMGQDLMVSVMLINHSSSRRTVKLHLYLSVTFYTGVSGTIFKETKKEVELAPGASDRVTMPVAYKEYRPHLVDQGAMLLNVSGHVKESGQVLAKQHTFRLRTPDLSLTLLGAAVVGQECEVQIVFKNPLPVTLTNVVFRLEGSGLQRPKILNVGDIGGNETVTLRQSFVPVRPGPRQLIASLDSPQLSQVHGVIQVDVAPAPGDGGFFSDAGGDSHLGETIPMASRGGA

TG2 = molecular target: T2, TG2 (Homo sapiens, UniProt P21980); experiment: glutamate dehydrogenase-coupled deamidation assay, substrate Cbz-Gln-Gly; format: biochemical; details: irreversible inhibition model, full progress curves
T2 sequence (P21980 1-687): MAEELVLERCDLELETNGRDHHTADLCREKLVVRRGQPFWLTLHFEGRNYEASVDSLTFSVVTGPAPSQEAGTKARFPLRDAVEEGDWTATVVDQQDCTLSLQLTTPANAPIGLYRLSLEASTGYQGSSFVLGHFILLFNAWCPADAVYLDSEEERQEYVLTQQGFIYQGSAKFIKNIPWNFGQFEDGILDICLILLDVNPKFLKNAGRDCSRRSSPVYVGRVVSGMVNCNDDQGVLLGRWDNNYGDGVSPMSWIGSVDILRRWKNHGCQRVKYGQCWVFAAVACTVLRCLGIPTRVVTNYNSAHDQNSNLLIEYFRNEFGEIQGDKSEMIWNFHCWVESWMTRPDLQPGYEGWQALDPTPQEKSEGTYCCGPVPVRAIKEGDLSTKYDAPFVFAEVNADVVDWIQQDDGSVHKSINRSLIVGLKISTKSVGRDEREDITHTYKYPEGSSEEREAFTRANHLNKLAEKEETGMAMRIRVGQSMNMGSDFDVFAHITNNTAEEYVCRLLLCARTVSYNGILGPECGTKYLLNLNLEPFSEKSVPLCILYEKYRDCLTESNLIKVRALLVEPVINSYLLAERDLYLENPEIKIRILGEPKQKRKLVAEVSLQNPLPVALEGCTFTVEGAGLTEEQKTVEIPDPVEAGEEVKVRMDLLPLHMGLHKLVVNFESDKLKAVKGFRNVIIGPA

Row | Structure (SMILES) | kinh/Ki TG1 (TG1) [M⁻¹ s⁻¹] | kinh/Ki TG2 (TG2) [M⁻¹ s⁻¹]
1 | O=C(N[C@@H]1C[C@@H](C(=O)NC[C@@H]2CC(Br)=NO2)N(C(=O)OCc2cnc3ccccc3c2)C1)c1ccccc1 [Compound 1, (2S,4R)-quinolin-3-ylmethyl 4-benzamido-2-((((S)-3-bromo-4,5-dihydroisoxazol-5-yl)methyl)carbamoyl)pyrrolidine-1-carboxylate] | 410 | 430
2 | O=C(N[C@@H]1C[C@@H](C(=O)NC[C@@H]2CC(Br)=NO2)N(C(=O)OCc2cnc3ccccc3c2)C1)c1ccccc1O [Compound 2, (2S,4R)-quinolin-3-ylmethyl 2-((((S)-3-bromo-4,5-dihydroisoxazol-5-yl)methyl)carbamoyl)-4-(2-hydroxybenzamido)pyrrolidine-1-carboxylate] | 452 | 618
3 | O=C(N[C@@H]1C[C@@H](C(=O)NC[C@@H]2CC(Br)=NO2)N(C(=O)OCc2cnc3ccccc3c2)C1)c1cccc(O)c1 [Compound 3, (2S,4R)-quinolin-3-ylmethyl 2-((((S)-3-bromo-4,5-dihydroisoxazol-5-yl)methyl)carbamoyl)-4-(3-hydroxybenzamido)pyrrolidine-1-carboxylate] | 302 | 603
4 | O=C(N[C@@H]1C[C@@H](C(=O)NC[C@@H]2CC(Br)=NO2)N(C(=O)OCc2cnc3ccccc3c2)C1)c1ccc(O)cc1 [Compound 4, (2S,4R)-quinolin-3-ylmethyl 2-((((S)-3-bromo-4,5-dihydroisoxazol-5-yl)methyl)carbamoyl)-4-(4-hydroxybenzamido)pyrrolidine-1-carboxylate] | 522 | 940
5 | O=C(N[C@@H]1C[C@@H](C(=O)NC[C@@H]2CC(Br)=NO2)N(C(=O)OCc2cnc3ccccc3c2)C1)c1cnccn1 [Compound 6, (2S,4R)-quinolin-3-ylmethyl 2-((((S)-3-bromo-4,5-dihydroisoxazol-5-yl)methyl)carbamoyl)-4-(pyrazine-2-carboxamido)pyrrolidine-1-carboxylate] | 200 | 262
6 | O=C(NC[C@@H]1CC(Br)=NO1)[C@@H]1C[C@@H](NC(=O)C2(C(=O)O)CCC2)CN1C(=O)OCc1cnc2ccccc2c1 [Compound 7, 1-(((3R,5S)-5-((((S)-3-bromo-4,5-dihydroisoxazol-5-yl)methyl)carbamoyl)-1-((quinolin-3-ylmethoxy)carbonyl)pyrrolidin-3-yl)carbamoyl)cyclobutanecarboxylic acid] | 96.7 | 230
7 | O=C(NC[C@@H]1CC(Br)=NO1)[C@@H]1C[C@@H](c2ccccc2)CN1C(=O)OCc1cnc2ccccc2c1 [Compound 8, (2S,4S)-quinolin-3-ylmethyl 2-((((S)-3-bromo-4,5-dihydroisoxazol-5-yl)methyl)carbamoyl)-4-phenylpyrrolidine-1-carboxylate] | 1100 | 810
8 | O=C(NC[C@@H]1CC(Br)=NO1)[C@@H]1C[C@H](c2ccccc2)CN1C(=O)OCc1cnc2ccccc2c1 [Compound 9, (2S,4R)-quinolin-3-ylmethyl 2-((((S)-3-bromo-4,5-dihydroisoxazol-5-yl)methyl)carbamoyl)-4-phenylpyrrolidine-1-carboxylate] | 287 | 295
9 | O=C(NC[C@@H]1CC(Br)=NO1)[C@@H]1C[C@@H](c2ccccc2O)CN1C(=O)OCc1cnc2ccccc2c1 [Compound 10, (2S,4S)-quinolin-3-ylmethyl 2-((((S)-3-bromo-4,5-dihydroisoxazol-5-yl)methyl)carbamoyl)-4-(2-hydroxyphenyl)pyrrolidine-1-carboxylate] | 492 | 563
10 | O=C(NC[C@@H]1CC(Br)=NO1)[C@@H]1C[C@@H](c2cccc(O)c2)CN1C(=O)OCc1cnc2ccccc2c1 [Compound 11, (2S,4S)-quinolin-3-ylmethyl 2-((((S)-3-bromo-4,5-dihydroisoxazol-5-yl)methyl)carbamoyl)-4-(3-hydroxyphenyl)pyrrolidine-1-carboxylate] | 645 | 870
11 | O=C(NC[C@@H]1CC(Br)=NO1)[C@@H]1C[C@@H](c2ccc(O)cc2)CN1C(=O)OCc1cnc2ccccc2c1 [Compound 12, (2S,4S)-quinolin-3-ylmethyl 2-((((S)-3-bromo-4,5-dihydroisoxazol-5-yl)methyl)carbamoyl)-4-(4-hydroxyphenyl)pyrrolidine-1-carboxylate] | 1510 | 1520
12 | O=C(NC[C@@H]1CC(Br)=NO1)[C@@H]1C[C@@H](c2cccc(Cl)c2)CN1C(=O)OCc1cnc2ccccc2c1 [Compound 13, (2S,4S)-quinolin-3-ylmethyl 2-((((S)-3-bromo-4,5-dihydroisoxazol-5-yl)methyl)carbamoyl)-4-(3-chlorophenyl)pyrrolidine-1-carboxylate] | 695 | 422
13 | O=C(NC[C@@H]1CC(Br)=NO1)[C@@H]1C[C@@H](c2ccc(Cl)cc2)CN1C(=O)OCc1cnc2ccccc2c1 [Compound 14, (2S,4S)-quinolin-3-ylmethyl 2-((((S)-3-bromo-4,5-dihydroisoxazol-5-yl)methyl)carbamoyl)-4-(4-chlorophenyl)pyrrolidine-1-carboxylate] | 257 | 200
14 | O=C(NC[C@@H]1CC(Br)=NO1)[C@@H]1C[C@@H](c2c[nH]c3ccc(F)cc23)CN1C(=O)OCc1cnc2ccccc2c1 [Compound 15, (2S,4S)-quinolin-3-ylmethyl 2-((((S)-3-bromo-4,5-dihydroisoxazol-5-yl)methyl)carbamoyl)-4-(5-fluoro-1H-indol-3-yl)pyrrolidine-1-carboxylate] | 800 | 307
